pIC50: −log10 of the molar value. Several values for one entry are separate records, joined by “and”; a condition that tells them apart may be missing. Equal values may be shown once. One block for each molecule: values may come before it.
Test system: 521955-158-R2-J5-PDC complex spheroid growth, % test/control
Test: Anticancer human tumor 521955-158-R2-J5-PDC patient-derived pancreatic carcinoma cell line growth inhibition [Asc]
Settings: for viability, T/C: stronger effect = lower value
Experimental: Multicellular complex tumor spheroid response to apoptosis pathway targeting inhibitors Alrizomadlin, Pelcitoclax, and Dasminapant in combination with a variety of drugs and investigational agents in selected tumor cell lines
The MDM2 inhibitor alrizomadlin, the Bcl-2/Bcl-xL inhibitor pelcitoclax, and the IAPs inhibitor dasminapant were evaluated both individually and in combination with standard of care and investigational anticancer small molecules within a complex spheroid model of solid tumors. . Complex spheroids include a stromal component modeled by human endothelial cells (HUVEC) and fibroblasts modeled by human mesenchymal stem cells (MSCs). The concentration ranges selected for each drug and investigational agent were based upon clinically achievable concentrations if the clinical Cmax of the agent was known.
Compounds. The drugs and investigational agents: alrizomadlin (APG-115; NSC831270), pelcitoclax (APG-1252; NSC835773), dasminapant (APG-1387;NSC834197), TAK-243 (NSC785004), copanlisib (NSC809693), olaparib (NSC753686), talazoparib (NSC767125), cobimetinib (NSC 768068), eltanexor (KPT-8602, NSC 794443), abemaciclib (NSC 768073), sotorasib (NSC818433), adagrasib (NSC 831453), MRTX-1133 (NSC 836407), Iadademestat (ORY1001, NSC 806812), and RMC-4630 (NSC839698), were obtained from the NCI Developmental Therapeutics Program Chemical Repository. The FDA-approved anticancer drug set is available from the Developmental Therapeutics Program at https://dtp.cancer.gov/organization/dscb/obtaining/available plates.htm. […] The stock solutions were prepared in dimethyl sulfoxide (DMSO, Sigma-Aldrich, St. Louis, MO, cat. D2650) at 800-fold the tested concentration and stored at -70 degrees C prior to their use. All drugs and investigational agents were tested over a range starting from a high concentration at or near the clinical Cmax and decreasing in half-log increments. If the clinical Cmax for an agent had not been determined, the highest concentration tested was 10 microM.
The patient-derived cancer (PDC) cell lines include five colon adenocarcinomas: 186277-243-T-J2-PDC, 616215-338-R-J1-PDC, 439559-082-T-J2-PDC, 463943-066-T-J2-PDC, and 519858-162-T-J1-PDC; three pancreatic carcinomas: 323965-272-R-J2-PDC, 521955-158-R6-J3-PDC, and 521955-158-R2-J5-PDC; two uterine sarcomas: 327498-152-R-J2-PDC and 993429-296-R-J1-PDC; two rhabdomyosarcomas: 755483-174-R-J1-PDC and 772245-204-R-J1-PDC; two soft tissue sarcomas: 126254-015-R-J1-PDC and 494315-158-R-J1-PDC; two malignant fibrous histiocytomas: 317291-083-R-J1-PDC and 596521-263-R-J1-PDC; two breast carcinomas: 171881-019-R-J1-PDC and 885512-296-R-J2-PDC; and one ovarian carcinoma: 6556581-035-R-J-PDC were obtained from the NCI PDMR, (https://pdmr.cancer.gov). The established cell lines HSSY-2 synovial sarcoma (RRID:CVCL 8719), SYO-1 synovial sarcoma (RRID:CVCL_7146), MPNST malignant peripheral neural sheath tumor were obtained from the Sloan Kettering Institute. The following established cell lines were purchased from the American Type Culture Collection (ATCC, Manassas, VA), Sor the received from the NCI repository:, PANC-1 pancreatic carcinoma (CRL-1469, RRID:CVCL_0480), OVCAR-5 ovarian carcinoma (RRID:CVCL_1628), OVCAR-8 ovarian carcinoma (RRID:CVCL_1629), , MCF-7 breast carcinoma (CRL-12584, RRID:CVCL_0031), MDA-MB-231 breast carcinoma (CRL-12532, RRID:CVCL_0062), NCI-H1876 small cell lung carcinoma (CRL-5902, RRID:CVCL_1503), NCI-H510A small cell lung carcinoma (HTB-184, RRID:CVCL_1565), NCI-H1417 (CRL-5869, RRID:CVCL_1469), and NCI-H196 small cell lung carcinoma (CRL-5823, RRID:CVCL_1509). Dr. Peter Houghton (Greehey Children's Cancer Research Institute, University of Texas Health Science Center, San Antonio, TX) provided Rh-18 rhabdomyosarcoma (RRID:CVCL_1659). Pooled donor human umbilical vein endothelial cells (HUVEC, Lonza, cat. CC-2519) and human mesenchymal stem cells (hMSC, Lonza, cat. PT-2501) were purchased from Lonza (Walkersville, MD).
Cell Culture. […]
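Note: spheroids exposed to agents for 7 days before readout.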
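Throughout, for viability, T/C: 100% = DMSO vehicle control viability.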

pIC50 (curve of compound): 7.04 and 6.74 and 7.51
SMILES: O=C(c1ccc(F)c(F)c1Nc1ccc(I)cc1F)N1CC(O)([C@@H]2CCCCN2)C1
viability, T/C (compound 0.00316 µM): 73.4% and 81.6% and 64.9% | viability, T/C (compound 0.01 µM): 73.2% and 72.4% and 79.1% | viability, T/C (compound 0.0316 µM): 61.1% and 71.3% and 49.6% | viability, T/C (compound 0.1 µM): 47.8% and 51.4% and 31% | viability, T/C (compound 0.316 µM): 41.1% and 47.1% and 32.3% | viability, T/C (compound 1 µM): 33.1% and 31.4% and 26%

pIC50 (curve of first compound, second compound 0.03 µM): 8.34 | pIC50 (curve of first compound, second compound 0.0949 µM): 8.04 | pIC50 (curve of first compound, second compound 0.3 µM): 8.15 | pIC50 (curve of first compound, second compound 0.949 µM): 7.97 | pIC50 (curve of first compound, second compound 3 µM): 7.52
SMILES: COc1c(OCCCN2CCOCC2)ccc2c3n(c(=NC(=O)c4cnc(N)nc4)nc12)CCN3 + CCN1C(C(=O)NC23CCC(C(=O)O)(CC2)CC3)C(c2cccc(Cl)c2F)C2(C(=O)Nc3cc(Cl)ccc32)C12CCCCC2
viability, T/C (second compound 0.03 µM, first compound 0.00316 µM): 53.5% | viability, T/C (second compound 0.03 µM, first compound 0.01 µM): 43.2% | viability, T/C (second compound 0.03 µM, first compound 0.0316 µM): 34.5% | viability, T/C (second compound 0.03 µM, first compound 0.1 µM): 30.3% | viability, T/C (second compound 0.03 µM, first compound 0.316 µM): 24.3% | viability, T/C (second compound 0.03 µM, first compound 1 µM): 17.3% | viability, T/C (second compound 0.0949 µM, first compound 0.00316 µM): 61.1% | viability, T/C (second compound 0.0949 µM, first compound 0.01 µM): 47.8% | viability, T/C (second compound 0.0949 µM, first compound 0.0316 µM): 38.2% | viability, T/C (second compound 0.0949 µM, first compound 0.1 µM): 30.3% | viability, T/C (second compound 0.0949 µM, first compound 0.316 µM): 19% | viability, T/C (second compound 0.0949 µM, first compound 1 µM): 15.2% | viability, T/C (second compound 0.3 µM, first compound 0.00316 µM): 60.2% | viability, T/C (second compound 0.3 µM, first compound 0.01 µM): 40.4% | viability, T/C (second compound 0.3 µM, first compound 0.0316 µM): 43.3% | viability, T/C (second compound 0.3 µM, first compound 0.1 µM): 31% | viability, T/C (second compound 0.3 µM, first compound 0.316 µM): 24.2% | viability, T/C (second compound 0.3 µM, first compound 1 µM): 23.1% | viability, T/C (second compound 0.949 µM, first compound 0.00316 µM): 71.6% | viability, T/C (second compound 0.949 µM, first compound 0.01 µM): 44.7% | viability, T/C (second compound 0.949 µM, first compound 0.0316 µM): 40.5% | viability, T/C (second compound 0.949 µM, first compound 0.1 µM): 31.5% | viability, T/C (second compound 0.949 µM, first compound 0.316 µM): 23.2% | viability, T/C (second compound 0.949 µM, first compound 1 µM): 15.8% | viability, T/C (second compound 3 µM, first compound 0.00316 µM): 93.6% | viability, T/C (second compound 3 µM, first compound 0.01 µM): 74.2% | viability, T/C (second compound 3 µM, first compound 0.0316 µM): 43.5% | viability, T/C (second compound 3 µM, first compound 0.1 µM): 37.3% | viability, T/C (second compound 3 µM, first compound 0.316 µM): 22.5% | viability, T/C (second compound 3 µM, first compound 1 µM): 16.7%

— PubChem BioAssay AID1963430 (Molecular Pharmacology Branch, DTP, NCI, 2024)
